Measurements: patent US11427552B2, “Heterocyclic compounds useful in the treatment of disease” (EPIGEN BIOSCIENCES, INC., priority 2013, dated 2022)

Target: T1, LPA1R (Homo sapiens, UniProt Q92633)
T1 construct: host or cells: LPA1R expressing cells (Millipore, GPCR Profiler)
Assay: LPA1R Ca2+ flux functional assay (antagonist mode, FLIPR)
Assay type: cell-based
Details: inhibition of LPA-stimulated Ca2+ flux, LPA at EC80, LPA1R expressing cells (Millipore); read-out: LPA1 R Antagonist Activity
Method: Inhibition of LPA-stimulated Ca^2+ flux was used to assess compound potency using FLIPR technology in a 96 well plate format. The assay buffer used was a modified Hanks Balanced Salt Solution (HBSS) where HBSS was supplemented to contain 20 mM HEPES and 2.5 mM Probenecid at pH7.4 (Millipore, GPCR Profiler®). LPA1R expressing cells (Millipore) were plated and prepared 24 hours prior to assay of test articles. Ca^2+ ion flux was assessed from fluorescence of a Fluo-based No Wash Ca^2+ dye. Antagonist data are generated from plates with LPA concentrations sufficient to generate 80% efficacy [EC80]. Percentage inhibition was calculated from a reduction of efficacy according to concentration of compounds of Formula I-VI. For dose responses the inhibition data was used to calculate compound IC50. The agonist assay was conducted on a FLIPR^TETRA instrument where the test compound(s), vehicle controls, and reference agonist were added to the assay plate after a fluorescence baseline was established. The agonist assay was a total of 180 seconds and was used to assess each compound's ability to activate each GPCR assayed. Upon completion of the agonist assay, the assay plate was removed from the FLIPR^TETRA and incubated at 25° C. for seven (7) minutes. After the incubation period, the assay plate was placed back in the FLIPR^TETRA and the antagonist assay was initiated. Using EC80 potency values determined during the agonist assay, all pre-incubated sample compound wells were challenged with EC80 concentration of reference agonist after establishment of a fluorescence baseline. The antagonist assay was conducted using the same assay plate that was used for the agonist assay. The antagonist assay was conducted on a FLIPR^TETRA instrument where 9 vehicle controls and EC80 concentration of reference agonist were added to appropriate wells. The antagonist assay was a total of 180 seconds and was used to assess each compound's ability to inhibit each GPCR assayed. All assay plate data were subjected to appropriate baseline corrections. After baseline corrections were applied, maximum fluorescence values were exported and data processed to calculate percentage activation (relative to Emax reference agonist and vehicle control values), percentage inhibition (relative to EC80 and vehicle control values), and additional statistical values (i.e. Z′, percentage variation between replicate data values) to assess the quality of each plate. Where assay plate data were rejected, additional experiments were conducted. All dose response curves were generated using GraphPad Prism. The curves were fit by utilizing “Sigmoidal Dose Response (Variable Slope)” equation where the bottom parameter was fixed to “0.” Where appropriate, the top parameter was fixed to “100” to better predict potency values when a full curve was not generated by the concentrations assayed.

T1 sequence (Q92633 whole entry): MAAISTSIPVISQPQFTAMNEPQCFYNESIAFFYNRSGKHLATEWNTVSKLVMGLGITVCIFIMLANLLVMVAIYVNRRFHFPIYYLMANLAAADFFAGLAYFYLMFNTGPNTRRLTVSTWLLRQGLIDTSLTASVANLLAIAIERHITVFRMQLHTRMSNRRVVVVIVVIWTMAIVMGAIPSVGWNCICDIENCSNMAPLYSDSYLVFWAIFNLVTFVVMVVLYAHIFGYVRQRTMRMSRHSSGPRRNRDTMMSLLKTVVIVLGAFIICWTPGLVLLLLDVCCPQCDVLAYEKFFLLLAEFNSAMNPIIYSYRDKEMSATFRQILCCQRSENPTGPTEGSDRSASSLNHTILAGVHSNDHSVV

Molecule	IC50 [nM]
Cc1noc(-c2ccc(C(=O)N[C@H](Cc3ccccc3)C(=O)O)cc2)c1NC(=O)O[C@@H](C)c1ccccc1 [Example 18, (R)-2-{4-[3-Methyl-4-((S)-1-phenyl-ethoxycarbonylamino)-isoxazol-5-yl]-benzoylamino}-3-phenyl-propionic Acid]	> 50000
Cc1noc(-c2ccc(COC(Cc3ccccc3)C(=O)O)cc2)c1NC(=O)O[C@H](C)c1ccccc1 (stereo partly drawn) [Example 43, 2-{4-[3-Methyl-4-((R)-1-phenyl-ethoxycarbonylamino)-isoxazol-5-yl]-benzyloxy}-3-phenyl-propionic Acid]	300 to 1000
CC(OC(=O)Nc1c(C#N)cnn1-c1ccc(-c2ccc(CC(=O)O)cc2)cc1)c1ccccc1Cl (stereo not shown) [Example 46, 2-[4-[4-[5-[1-(2-chlorophenyl)ethoxycarbonylamino]-4-cyano-pyrazol-1-yl]phenyl]phenyl]acetic Acid]	1000 to 50000
Cc1noc(-c2ccc(C(=O)N[C@H](Cc3ccccc3)C(=O)O)cc2)c1NC(=O)O[C@H](C)c1ccccc1 [Example 5, 2(R)-[[4-[3-methyl-4-((R)-1-phenylethoxycarbonylamino)isoxazol-5-yl]benzoyl]amino]-3-phenyl-propanoic Acid]	< 300
Cc1noc(-c2ccc(CN[C@H](Cc3ccc(C(F)(F)F)cc3)C(=O)O)cc2)c1NC(=O)O[C@H](C)c1ccccc1 [Example 33, (R)-2-{4-[3-Methyl-4-((R)-1-phenyl-ethoxycarbonylamino)-isoxazol-5-yl]-benzylamino}-3-(4-trifluoromethyl-phenyl)-propionic Acid]	< 300
C[C@@H](OC(=O)Nc1ccnn1-c1ccc(-c2ccc(C3(C(=O)O)CC3)cc2)nc1)c1ccccc1 [Example 56, (R)-1-(4-{5-[5-(1-Phenyl-ethoxycarbonylamino)-pyrazol-1-yl]-pyridin-2-yl}-phenyl)-cyclopropanecarboxylic Acid]	< 300
Cc1noc(-c2ccc(CNC(Cc3ccccc3F)C(=O)O)cc2)c1NC(=O)OC(C)c1ccccc1Cl [Example 38, (R)-2-(4-{4-[(R)_1-(2-Chloro-phenyl)-ethoxycarbonylamino]-3-methyl-isoxazol-5-yl}-benzylamino)-3-(2-fluoro-phenyl)-propionic Acid]	< 300
Cc1ccc(C[C@@H](NC(=O)c2ccc(-c3onc(C)c3NC(=O)O[C@H](C)c3ccccc3Cl)cc2)C(=O)O)cc1 [Example 27, (R)-2-(4-{4-[(R)-1-(2-Chloro-phenyl)-ethoxycarbonylamino]-3-methyl-isoxazol-5-yl}-benzoylamino)-3-p-tolyl-propionic Acid]	< 300
Cc1noc(-c2ccc(C(=O)NC3(C(=O)O)CC3)cc2)c1NC(=O)OC(C)c1ccccc1Cl (stereo not shown) [Example 1, 1-(4-{4-[1-(2-Chloro-phenyl)-ethoxycarbonylamino]-3-methyl-isoxazol-5-yl}-benzoylamino)-cyclopropanecarboxylic Acid]	1000 to 50000

The next lines start with the values.

IC50 [nM]	Molecule
< 300	(R)-2-(4-{4-[(R)-1-(2-Chloro-phenyl)-ethoxycarbonylamino]-3-methyl-isoxazol-5-yl}-benzoylamino)-3-phenyl-propionic Acid [Example 20]
< 300	C[C@@H](OC(=O)Nc1c(F)cnn1-c1ccc(-c2ccc(C3(C(=O)O)CC3)c(F)c2)cc1)c1ccccc1Cl [Example 49, (R)-1-(4′-{5-[1-(2-Chloro-phenyl)-ethoxycarbonylamino]-4-fluoro-pyrazol-1-yl}-3-fluoro-biphenyl-4-yl)-cyclopropanecarboxylic Acid]
< 300	C[C@@H](OC(=O)Nc1c(F)cnn1-c1ccc(-c2ccc(C3(C(=O)O)CC3)cc2)cc1)c1ccccc1Cl [Example 53, (R)-1-(4′-{5-[1-(2-Chloro-phenyl)-ethoxycarbonylamino]-4-fluoro-pyrazol-1-yl}-biphenyl-4-yl)-cyclopropanecarboxylic Acid]
< 300	Cc1noc(-c2ccc(COC(Cc3ccc(Cl)cc3)C(=O)O)cc2)c1OC(=O)O[C@H](C)c1ccccc1 (mixture of isomers) [Example 45, (RS)-3-(4-Chloro-phenyl)-2-{4-[3-methyl-4-((R)-1-phenyl-ethoxycarbonyloxy)-isoxazol-5-yl]-benzyloxy}-propionic Acid]
